# According to patent US20260217708A1, “FUSED BENZAZEPINE DERIVATIVES FOR USE IN THE TREATMENT OF CANCER AND EPILEPSY” (UCB BIOPHARMA SRL, priority 2023, published 2026):
# Key:
# [1] = target: T1, system Xc^− (Homo sapiens, UniProt Q9UPY5); assay: [^14C]L-Cystine uptake assay; assay type: cell-based; parameters: endogenous in cells; host or cells: H4 cells; conditions: H4 cells, sodium-free HEPES buffer, 0.5 μM L-[14C]Cystine and 4.5 μM L-Cystine, 1 hour at 37° C.; read-out: pIC50 [^14C] L-Cystine uptake assay (converted)
# T1 sequence (Q9UPY5 1-501): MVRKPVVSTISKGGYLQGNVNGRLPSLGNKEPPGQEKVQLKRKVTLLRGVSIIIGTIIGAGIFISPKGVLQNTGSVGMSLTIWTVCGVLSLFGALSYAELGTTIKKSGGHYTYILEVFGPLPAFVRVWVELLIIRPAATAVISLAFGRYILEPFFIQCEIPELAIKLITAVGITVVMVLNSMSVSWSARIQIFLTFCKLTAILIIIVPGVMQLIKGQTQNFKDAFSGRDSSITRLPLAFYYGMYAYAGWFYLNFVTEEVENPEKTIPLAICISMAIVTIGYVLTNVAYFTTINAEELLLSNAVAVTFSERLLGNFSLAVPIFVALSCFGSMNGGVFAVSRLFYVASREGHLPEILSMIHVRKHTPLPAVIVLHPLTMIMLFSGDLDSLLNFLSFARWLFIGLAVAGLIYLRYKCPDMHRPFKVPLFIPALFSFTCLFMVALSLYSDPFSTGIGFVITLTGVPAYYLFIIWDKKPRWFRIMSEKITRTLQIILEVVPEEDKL
# T1 sequence (P08195 1-529 partner): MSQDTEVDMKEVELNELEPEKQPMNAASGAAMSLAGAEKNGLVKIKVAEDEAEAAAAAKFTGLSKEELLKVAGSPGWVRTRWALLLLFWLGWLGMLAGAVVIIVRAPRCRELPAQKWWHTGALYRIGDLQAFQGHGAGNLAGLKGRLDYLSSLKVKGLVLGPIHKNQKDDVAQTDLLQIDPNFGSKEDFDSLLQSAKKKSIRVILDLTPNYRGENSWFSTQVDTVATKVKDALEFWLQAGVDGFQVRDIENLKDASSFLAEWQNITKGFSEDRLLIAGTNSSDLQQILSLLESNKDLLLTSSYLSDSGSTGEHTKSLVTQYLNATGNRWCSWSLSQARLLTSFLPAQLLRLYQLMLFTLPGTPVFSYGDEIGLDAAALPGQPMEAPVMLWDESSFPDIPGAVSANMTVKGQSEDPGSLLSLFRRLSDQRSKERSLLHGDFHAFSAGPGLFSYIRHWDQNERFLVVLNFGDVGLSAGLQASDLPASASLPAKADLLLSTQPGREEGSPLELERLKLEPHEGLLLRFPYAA
# How it was run: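 H4 cells at 5×10^4 cells/well in sodium-free HEPES buffer were preincubated 15 min with compounds (1% DMSO). Uptake of 0.5 μM [14C]L-cystine plus 4.5 μM unlabelled L-cystine ran 1 hour at 37° C on scintillating plates. IC50 was set between 1% DMSO and 50 μM Erastin controls and expressed as pIC50.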
# [2] = target: T1, system Xc^−; assay: Cystine-induced glutamate release assay; assay type: cell-based; parameters: endogenous in cells; host or cells: H4 cells; conditions: H4 cells, sodium-free HEPES buffer, 50 μM L-Cystine, 2 hours, Amplex Red glutamate readout; read-out: pIC50 Cystine-induced glutamate release assay (converted)
# How it was run: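 H4 cells in sodium-free HEPES buffer (pH 7.4), 2 days after plating; glutamate release induced with 50 μM L-cystine plus compound (1% DMSO), 2 h at 37 °C. Supernatant glutamate measured by Amplex Red fluorescence; IC50/pIC50 derived between 1% DMSO and 50 μM erastin controls.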
Compound,IC50 [1] [nM],IC50 [2] [nM]
"CN1CC(c2cc3c(c(Cl)n2)-c2cccnc2CC(=O)N3CC(=O)Nc2ccc(C(F)(F)F)cc2)C1 [#170, 2-[3-chloro-5-(1-methylazetidin-3-yl)-9-oxo-4,8,12-triazatricyclo[9.4.0.0^2,7]pentadeca-1(11),2(7),3,5,12,14-hexaen-8-yl]-N-[4-(trifluoromethyl)phenyl]acetamide]",39.8 to 100,39.8 to 100
"Cc1cc2c(c(F)n1)-c1cncc(F)c1C(C)C(=O)N2CC(=O)Nc1ccc(C(F)(F)F)cc1 (stereo not shown) [#171, 2-(3,12-difluoro-5,10-dimethyl-9-oxo-4,8,14-triazatricyclo[9.4.0.0^2,7]pentadeca-1(11),2(7),3,5,12,14-hexaen-8-yl)-N-[4-(trifluoromethyl)phenyl]acetamide]",15.8 to 39.8,39.8 to 100
"Cc1cc2c(c(F)n1)-c1ccnnc1C(C)C(=O)N2CC(=O)Nc1ccc(C(F)(F)F)cc1 (stereo not shown) [#172, 2-(3-fluoro-5,10-dimethyl-9-oxo-4,8,12,13-tetrazatricyclo[9.4.0.0^2,7]pentadeca-1(11),2(7),3,5,12,14-hexaen-8-yl)-N-[4-(trifluoromethyl)phenyl]acetamide]",15.8 to 39.8,15.8 to 39.8
"Cc1cc2c(c(Cl)n1)-c1ccnnc1C(C)C(=O)N2CC(=O)Nc1ccc(C(F)(F)F)cc1 (stereo not shown) [#173, 2-(3-chloro-5,10-dimethyl-9-oxo-4,8,12,13-tetrazatricyclo[9.4.0.0^2,7]pentadeca-1(11),2(7),3,5,12,14-hexaen-8-yl)-N-[4-(trifluoromethyl)phenyl]acetamide]",< 15.8,15.8 to 39.8
"Cc1cc2c(c(=O)n1C1CC1)-c1cccnc1C(C)C(=O)N2CC(=O)Nc1ccc(Cl)c(F)c1 (stereo not shown) [#179, N-(4-chloro-3-fluoro-phenyl)-2-(4-cyclopropyl-5,10-dimethyl-3,9-dioxo-4,8,12-triazatricyclo[9.4.0.0^2,7]pentadeca-1(11),2(7),5,12,14-pentaen-8-yl)acetamide]",15.8 to 39.8,39.8 to 100
"Cc1cc2c(c(F)n1)-c1cnccc1C(C)C(=O)N2CC(=O)Nc1ccc(C(F)(F)F)cc1 (stereo not shown) [#180, 2-(3-fluoro-5,10-dimethyl-9-oxo-4,8,14-triazatricyclo[9.4.0.0^2,7]pentadeca-1(11),2(7),3,5,12,14-hexaen-8-yl)-N-[4-(trifluoromethyl)phenyl]acetamide]",15.8 to 39.8,39.8 to 100
"Cc1cc2c(n(C)c1=O)-c1ccc(Cl)cc1C(C)C(=O)N2CC(=O)Nc1ccc(Cl)c(F)c1 (stereo not shown) [#181, N-(4-chloro-3-fluoro-phenyl)-2-(9-chloro-1,3,7-trimethyl-2,6-dioxo-7H-pyrido[3,2-d][3]benzazepin-5-yl)acetamide]",< 15.8,15.8 to 39.8
"COc1cc2c(c(F)n1)-c1cccnc1C(C)C(=O)N2CC(=O)Nc1ccc(C(F)(F)F)cc1 (stereo not shown) [#182, 2-(3-fluoro-5-methoxy-10-methyl-9-oxo-4,8,12-triazatricyclo[9.4.0.0^2,7]pentadeca-1(11),2(7),3,5,12,14-hexaen-8-yl)-N-[4-(trifluoromethyl)phenyl]acetamide]",15.8 to 39.8,15.8 to 39.8
"Cc1cc2c(c(F)n1)-c1cc[nH]c(=O)c1CC(=O)N2CC(=O)Nc1ccc(C(F)(F)F)cc1 [#183, 2-(3-fluoro-5-methyl-9,12-dioxo-4,8,13-triazatricyclo[9.4.0.0^2,7]pentadeca-1(11),2(7),3,5,14-pentaen-8-yl)-N-[4-(trifluoromethyl)phenyl]acetamide]",39.8 to 100,100 to 501
"CC1C(=O)N(CC(=O)Nc2ccc(C(F)(F)F)cc2)c2cc(F)c(=O)n(C)c2-c2cccnc21 (stereo not shown) [#185, 2-(5-fluoro-3,10-dimethyl-4,9-dioxo-3,8,12-triazatricyclo[9.4.0.0^2,7]pentadeca-1(11),2(7),5,12,14-pentaen-8-yl)-N-[4-(trifluoromethyl)phenyl]acetamide]",39.8 to 100,39.8 to 100
"Cc1cc2c(c(F)n1)-c1cncc(F)c1CC(=O)N2CC(=O)Nc1ccc(C(F)(F)F)cc1 [#212, 2-(3,12-difluoro-5-methyl-9-oxo-4,8,14-triazatricyclo[9.4.0.0^2,7]pentadeca-1(11),2(7),3,5,12,14-hexaen-8-yl)-N-[4-(trifluoromethyl)phenyl]acetamide]",15.8 to 39.8,100 to 501
"Cc1cc2c(c(F)n1)-c1cccnc1[C@@H](C)C(=O)N2CC(=O)Nc1ccc(F)cc1 [#233, 2-[(10R)-3-fluoro-5,10-dimethyl-9-oxo-4,8,12-triazatricyclo[9.4.0.0^2,7]pentadeca-1(15),2,4,6,11,13-hexaen-8-yl]-N-(4-fluorophenyl)acetamide]",15.8 to 39.8,39.8 to 100
"Cc1cc2c(c(F)n1)-c1cccnc1[C@@H](C)C(=O)N2CC(=O)Nc1ccc2c(c1)CC(F)(F)C2 [#237, N-(2,2-difluoroindan-5-yl)-2-[(10R)-3-fluoro-5,10-dimethyl-9-oxo-4,8,12-triazatricyclo[9.4.0.0^2,7]pentadeca-1(15),2,4,6,11,13-hexaen-8-yl]acetamide]",39.8 to 100,15.8 to 39.8
"Cc1cc2c(c(F)n1)-c1cccnc1[C@@H](C)C(=O)N2CC(=O)Nc1ccc2c(c1)OC(F)(F)O2 [#238, N-(2,2-difluoro-1,3-benzodioxol-5-yl)-2-[(10R)-3-fluoro-5,10-dimethyl-9-oxo-4,8,12-triazatricyclo[9.4.0.0^2,7]pentadeca-1(15),2,4,6,11,13-hexaen-8-yl]acetamide]",39.8 to 100,39.8 to 100
"Cc1cc2c(c(F)n1)-c1cccnc1[C@@H](C)C(=O)N2CC(=O)Nc1ccc(F)c(Cl)c1 [#241, N-(3-chloro-4-fluoro-phenyl)-2-[(10R)-3-fluoro-5,10-dimethyl-9-oxo-4,8,12-triazatricyclo[9.4.0.0^2,7]pentadeca-1(15),2,4,6,11,13-hexaen-8-yl]acetamide]",15.8 to 39.8,< 15.8
"Cc1cc2c(c(F)n1)-c1cccnc1[C@@H](C)C(=O)N2CC(=O)Nc1ccc(Cl)cc1F [#242, N-(4-chloro-2-fluoro-phenyl)-2-[(10R)-3-fluoro-5,10-dimethyl-9-oxo-4,8,12-triazatricyclo[9.4.0.0^2,7]pentadeca-1(15),2,4,6,11,13-hexaen-8-yl]acetamide]",39.8 to 100,15.8 to 39.8
"Cc1cc2c(c(F)n1)-c1cccnc1[C@@H](C)C(=O)N2CC(=O)Nc1csc(Cl)c1 [#243, N-(5-chloro-3-thienyl)-2-[(10R)-3-fluoro-5,10-dimethyl-9-oxo-4,8,12-triazatricyclo[9.4.0.0^2,7]pentadeca-1(11),2(7),3,5,12,14-hexaen-8-yl]acetamide]",39.8 to 100,15.8 to 39.8
"Cc1cc2c(c(F)n1)-c1cccnc1[C@@H](C)C(=O)N2CC(=O)Nc1ccc(C(C)C)c(F)c1 [#244, 2-[(10R)-3-fluoro-5,10-dimethyl-9-oxo-4,8,12-triazatricyclo[9.4.0.0^2,7]pentadeca-1(11),2(7),3,5,12,14-hexaen-8-yl]-N-(3-fluoro-4-isopropyl-phenyl)acetamide]",15.8 to 39.8,15.8 to 39.8
"Cc1cc2c(c(F)n1)-c1cccnc1[C@@H](C)C(=O)N2CC(=O)Nc1ccc(C2(F)CC2)cc1 [#246, N-[4-(1-fluorocyclopropyl)phenyl]-2-[(10R)-3-fluoro-5,10-dimethyl-9-oxo-4,8,12-triazatricyclo[9.4.0.0^2,7]pentadeca-1(11),2(7),3,5,12,14-hexaen-8-yl]acetamide]",< 15.8,< 15.8
"Cc1cc2c(c(F)n1)-c1cccnc1[C@@H](C)C(=O)N2CC(=O)Nc1ccc(C(F)(F)F)cc1F [#247, 2-[(10R)-3-fluoro-5,10-dimethyl-9-oxo-4,8,12-triazatricyclo[9.4.0.0^2,7]pentadeca-1(11),2(7),3,5,12,14-hexaen-8-yl)-N-[2-fluoro-4-(trifluoromethyl)phenyl]acetamide]",39.8 to 100,39.8 to 100
